In patent US4310682A, “Halo-salicylanilide” (priority 1979, dated 1982):

Key:
Assay type in all cases: cell-based
[1] = system: Trichophyton rubrum IFO 9185; assay: MIC, Sabouraud agar medium containing the compound; conditions: fungus No. 7, 20° C., 14 days
Experimental: (§1) In order to test antifungal and bactericidal activity of halo-salicylanilide obtained in above mentioned Examples, following bacteria and fungi are employed.
No. 7 Trichophyton rubrum IFO 9185
(§2) Bacteria No. 1 to No. 4 are respectively cultured in Hart Infusion bouillon medium at 37° C. for 20 hours and resulting medium liquids are employed for said test. Fungi No. 5 to No. 7 are respectively cultured in Sabouraud agar medium and 10^6 cell/ml of cell dispersing liquids obtained from said medium are employed for said test.

[2] = system: Candida albicans ATCC 10259; assay: MIC, Sabouraud agar medium containing the compound; conditions: fungus No. 5, 20° C., 14 days
Experimental: as §1
No. 5 Candida albicans ATCC 10259
as §2

[3] = system: Staphylococcus aureus FDA-209-P; assay: MIC, agar medium containing the compound; conditions: bacterium No. 3, 37° C., 4 hours
Experimental: as §1
No. 3 Staphylococcus aureus FDA-209-P
as §2

[4] = system: Escherichia coli NIHJ JC-2; assay: MIC, agar medium containing the compound; conditions: bacterium No. 1, 37° C., 4 hours
Experimental: as §1
No. 1 Escherichia coli NIHJ JC-2
as §2

[5] = system: Pseudomonas aeruqinosa NC-5; assay: MIC, agar medium containing the compound; conditions: bacterium No. 2, 37° C., 4 hours
Experimental: as §1
No. 2 Pseudomonas aeruqinosa NC-5
as §2

[6] = system: Bacillus subtilis PCI-219; assay: MIC, agar medium containing the compound; conditions: bacterium No. 4, 37° C., 4 hours
Experimental: as §1
No. 4 Bacillus subtilis PCI-219
as §2

[7] = system: Aspergillus flavus IFO 8558; assay: MIC, Sabouraud agar medium containing the compound; conditions: fungus No. 6, 20° C., 14 days
Experimental: as §1
No. 6 Aspergillus flavus IFO 8558
as §2

Compound | MIC (Minimum Inhibitory Concentration) [1] | MIC (Minimum Inhibitory Concentration) [2] | MIC (Minimum Inhibitory Concentration) [3] | MIC (Minimum Inhibitory Concentration) [4] | MIC (Minimum Inhibitory Concentration) [5] | MIC (Minimum Inhibitory Concentration) [6] | MIC (Minimum Inhibitory Concentration) [7]
5-chloro-2'-methyl-4'-bromo chloro salicylanilide [compound 7] | 25 | 100 | 0.8 | > 100 | > 100 | 0.8 | 
CC(=O)Oc1ccc(F)cc1C(=O)Nc1ccc(I)cc1C [compound 19, 5-fluoro-2'-methyl-4'-iodo acetylsalicylanilide] | < 0.8 | 100 | 0.4 | > 100 | 100 | 0.4 | 
Cc1cc(Br)ccc1NC(=O)c1cc(Br)ccc1O [compound 10, 5-bromo-2'-methyl-4'-bromo salicylanilide] | 0.8 | 100 | 0.2 | > 100 | > 100 | 0.4 | 
CC(=O)Oc1ccc(F)cc1C(=O)Nc1ccc(Cl)cc1C [compound 15, 5-fluoro-2'-methyl-4'-chloro acetylsalicylanilide] | < 0.8 | 100 | 0.4 | > 100 | 100 | 0.4 | 
CC(=O)Oc1ccc(Br)cc1C(=O)Nc1ccc(Cl)cc1C [compound 9, 5-bromo-2'-methyl-4'-chloro acetylsalicylanilide] | 25 | 100 | 0.8 | > 100 | > 100 | 0.8 | 
CC(=O)Oc1ccc(Cl)cc1C(=O)Nc1ccc(Br)cc1C [compound 8, 5-chloro-2'-methyl-4'-bromo acetylsalicylanilide] | < 0.8 | 100 | 0.8 | > 100 | > 100 | 0.8 | 
COC1=CC(=O)C[C@@H](C)[C@]12Oc1c(Cl)c(OC)cc(OC)c1C2=O [Contrast No. 4, griseo fulvin, reference compound] | 25 |  | > 100 | > 100 |  | > 100 | 25
5-bromo-2'-methyl-4'-acetylsalicylanilide [compound 11] | 0.8 | 100 | 0.2 | > 100 | > 100 | 0.4 | 
Cc1cc(Br)ccc1NC(=O)c1cc(F)ccc1O [compound 16, 5-fluoro-2'-methyl-4'-bromo salicylanilide] | < 0.8 | 100 | 0.4 | > 100 | 100 | 0.4 | 
Cc1cc(I)ccc1NC(=O)c1cc(F)ccc1O [compound 18, 5-fluoro-2'-methyl-4'-iodo salicylanilide] | < 0.8 | 100 | 0.4 | > 100 | 100 | 0.4 | 
C=CCCCCCCCCC(=O)O [Contrast No. 3, undecylenic acid, reference compound] | 50 |  | > 100 | > 100 |  | > 100 | 50
O=C(Nc1ccc(Cl)cc1)c1cc(Br)ccc1O [Contrast No. 1, reference compound] | 50 | > 100 |  | > 100 | > 100 |  | > 100
CC(=O)Oc1ccc(F)cc1C(=O)Nc1ccc(Br)cc1C [compound 17, 5-fluoro-2'-methyl-4'-bromo acetylsalicylanilide] | < 0.8 | 100 | 0.4 | > 100 | 100 | 0.4 | 
Cc1cc(Br)ccc1NC(=O)c1cc(Cl)ccc1O [compound 2, 5-chloro-2'-methyl-4'-bromo salicyl anilide] | 50 | 50 | 0.8 | > 100 | > 100 | 0.8 | 50
Cc1cc(Cl)ccc1NC(=O)c1cc(F)ccc1O [compound 14, 5-fluoro-2'-methyl-4'-chloro salicylanilide] | < 0.8 | 100 | 0.4 | > 100 | 100 | 0.4 | 
Cc1cc(Cl)ccc1NC(=O)c1cc(Br)ccc1O [compound 1, 5-bromo-2'-methyl-4'-chloro salicylanilide] | 50 | 50 | 0.8 | > 100 | > 100 | 0.8 | 50
CC(=O)Oc1ccc(Cl)cc1C(=O)Nc1ccc(Cl)cc1C [compound 4, 5-chloro-2'-methyl-4' chloro-acetyl salcylanilide] | 0.2 | 100 | 0.1 | > 100 | > 100 | 0.2 | 
CC(=O)Oc1ccc(I)cc1C(=O)Nc1ccc(Cl)cc1C [compound 12, 5-iodo-2'-methyl-4'-chloro acetylsalicylanilide] | 0.8 | 100 | 0.8 | > 100 | 100 | 0.8 | 
